Drawing on patent US8207182B2, “Substituted cyclic urea derivatives and the use thereof as vanilloid receptor 1 modulators” (Gruenenthal GmbH, priority 2005, dated 2012), this text covers IC50 for 2 compounds.

This assay concerns the target T1, vanilloid receptor 1 (VR1/TRPV1) (Rattus norvegicus, UniProt O35433).
T1 construct: from tissue; host or cells: primary cells dissociated from rat dorsal root ganglia (DRGs), cultured for two to three days
Kind of assay: Functional investigation on the vanilloid receptor 1 (FLIPR Ca2+ influx assay, capsaicin). Type of assay: cell-based. The conditions noted are these: rat dorsal root ganglia cells, Fluo-4 FLIPR, 100 nM capsaicin. From the text: I. Functional Investigation on the Vanilloid Receptor 1 (VRI/TRPV1 Receptor)
The agonistic or antagonistic action of the substances to be investigated on the vanilloid receptor 1 (VR1/TRPV1) of the species rat can be determined using the following assay. According to this assay, the Ca^2+ influx through the receptor channel is quantified with the aid of a Ca^2+-sensitive dye (Type Fluo-4, Molecular Probes Europe BV, Leiden Netherlands) in a fluorescent imaging plate reader (FLIPR, Molecular Devices, Sunnyvale, USA).
Complete medium: 50 mL of HAMS F12 Nutrient Mixture (Gibco Invitrogen GmbH, Karlsruhe, Germany) with
10% by volume of FCS (fetal calf serum, Gibco Invitrogen GmbH, Karlsruhe, Germany, heat-inactivated);
2 mM L-glutamine (Sigma, Munich, Germany);
1% by weight of AA solution (antibiotic/antimycotic solution, PAA, Pasching, Austria) and 25 ng/mL of Medium NGF (2.5 S, Gibco Invitrogen GmbH, Karlsruhe, Germany) […]
The DRGs are in each case repeatedly suspended, drawn through No. 1, No. 12 and No. 16 needles by means of a syringe and transferred to 50 mL Falcon tubes and these are filled to 15 mL with complete medium. […] The resulting pellet is in each case taken up in 250 μL of complete medium and the cell count is determined. […]

T1 sequence (O35433 whole entry): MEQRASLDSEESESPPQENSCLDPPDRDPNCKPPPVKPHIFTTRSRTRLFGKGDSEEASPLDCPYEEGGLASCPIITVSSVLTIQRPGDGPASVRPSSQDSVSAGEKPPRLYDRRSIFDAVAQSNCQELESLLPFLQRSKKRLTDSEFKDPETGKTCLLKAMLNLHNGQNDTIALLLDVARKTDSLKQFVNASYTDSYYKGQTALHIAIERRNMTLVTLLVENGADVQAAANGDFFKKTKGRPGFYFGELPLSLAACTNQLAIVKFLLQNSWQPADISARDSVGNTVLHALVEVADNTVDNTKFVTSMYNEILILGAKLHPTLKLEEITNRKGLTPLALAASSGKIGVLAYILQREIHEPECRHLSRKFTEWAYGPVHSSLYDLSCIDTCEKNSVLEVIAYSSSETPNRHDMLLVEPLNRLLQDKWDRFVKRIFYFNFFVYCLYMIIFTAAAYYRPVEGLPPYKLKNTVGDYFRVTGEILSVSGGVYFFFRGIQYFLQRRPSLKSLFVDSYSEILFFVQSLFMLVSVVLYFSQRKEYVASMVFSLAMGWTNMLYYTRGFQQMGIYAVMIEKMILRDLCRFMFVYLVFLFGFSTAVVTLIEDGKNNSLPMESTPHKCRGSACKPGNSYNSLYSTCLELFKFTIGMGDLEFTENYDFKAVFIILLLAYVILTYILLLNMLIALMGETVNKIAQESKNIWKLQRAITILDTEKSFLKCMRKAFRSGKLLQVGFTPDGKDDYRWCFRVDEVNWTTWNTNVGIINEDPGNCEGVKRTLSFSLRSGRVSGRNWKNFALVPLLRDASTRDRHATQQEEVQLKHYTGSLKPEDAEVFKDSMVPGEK

The compound `CC(C)(C)c1ccc(CN2CCN(Cc3ccc(NS(C)(=O)=O)cc3)C2=O)cc1` [Example 4, N-{4-[3-(4-tert-butylbenzyl)-2-oxoimidazolidin-1-ylmethyl]-phenyl}methanesulfonamide] showed an IC50 of 9.4 µM.

For `CC(C)(C)c1ccc(CN2CCCN(Cc3ccc(NS(C)(=O)=O)cc3)C2=O)cc1` [Example 5, N-{4-[3-(4-tert-butylbenzyl)-2-oxotetrahydropyrimidin-1-ylmethyl]-phenyl}methanesulfonamide], the IC50 worked out at 2.9 µM.
